Results published in PubChem BioAssay (NCI).
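Protocol summary: plate cells (96-well), add compound at 5 concentrations, incubate 48 h, interpolate endpoints linearly. Abbreviation: GI50, concentration required for 50% inhibition of growth. TGI is the concentration that stops growth completely.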 Where a SMILES comes first, the peptide text is derived from it. [ ]: non-standard residue; d: D form. Phe(4-Cl) = N[CH](Cc1ccc(Cl)cc1)C(=O)O

How the values were obtained:
Assay in all cases: inhibition of tumour cell growth, NCI panel, 48 h
[1] = system: LOX IMVI melanoma
[2] = system: HT29 colon
[3] = system: IGROV1 ovarian
[4] = system: CCRF-CEM leukemia
[5] = system: SW-620 colon
[6] = system: UACC-62 melanoma
[7] = system: NCI-H226 lung
[8] = system: NCI-H460 lung
[9] = system: EKVX NSCLC
[10] = system: SNB-75 CNS

Compound | TGI [1] [µM] | TGI [2] [µM] | TGI [3] [µM] | TGI [4] [µM] | TGI [5] [µM] | TGI [6] [µM] | TGI [7] [µM] | TGI [8] [µM] | TGI [9] [µM] | GI50 [1] [nM] | GI50 [2] [nM] | GI50 [3] [nM] | GI50 [4] [nM] | GI50 [5] [nM] | GI50 [6] [nM] | GI50 [10] [nM] | TGI [10] [µM] | GI50 [7] [nM] | GI50 [8] [nM] | GI50 [9] [nM]
CCOC1=NC(=O)CC(c2ccccc2)S1 (stereo not given) | > 100 | > 100 | > 100 | > 100 | > 100 | > 100 | > 100 | > 100 | > 100 | – | – | – | – | – | – | – | – | – | – | –
O=C(O)CP(=S)(S)c1ccccc1 (stereo not given) | > 100 | > 100 | – | > 100 | > 100 | > 100 | > 100 | > 100 | > 100 | – | – | – | – | – | – | – | – | – | – | –
COc1cc(C2=NN(C(C)=O)C(c3ccc(OC(C)=O)cc3OC(C)=O)O2)c(OC(C)=O)c2ccccc12 (stereo not given) | 11.7 | 41.3 | 42.6 | 8.03 | 27.5 | 9.67 | 14.4 | > 33.4 | – | 374 | 4480 | 820 | 338 | 608 | 897 | 2280 | 29.6 | 1150 | 1150 | –
O=C1c2ccccc2-c2c1c1ccccc1c(=O)n2Cc1ccccc1 | > 100 | > 100 | > 100 | > 100 | > 100 | > 100 | > 100 | – | > 100 | – | – | – | – | – | – | – | > 100 | – | – | –
Nc1ncc(-c2cnn(CCO)c2)c2scc(-c3ccc(NC(=O)Nc4cccc(F)c4)cc3)c12 | – | 2.07 | 2.61 | 5.01 | 3.74 | 1.78 | 5.15 | 4.21 | – | – | 283 | 285 | < 10 | 179 | 370 | 271 | 1.74 | 162 | < 35.5 | –
Nc1ccc(/C=C/c2ccnc3ccccc23)cc1 | – | 65.1 | > 100 | 40.7 | 97.7 | 56.9 | 47.7 | 49.1 | – | – | – | – | – | – | – | – | 41.8 | – | – | –
C[N+](C)(C)CC1CCCC(C[N+](C)(C)C)C1=O (stereo not given) | 3.09 | 14.2 | 11.5 | 1.28 | – | 10.9 | 31.4 | 39.2 | 3.95 | – | – | – | – | – | – | – | 14.5 | – | – | –
Cc1ccc2nc3c(C(=O)NCCN(C)C)cccc3nc2c1 | 5.19 | 15.4 | > 60.1 | – | > 35.7 | 16.8 | 10.4 | – | 24.2 | – | – | – | – | – | – | – | 42.9 | – | – | –
Cc1ccc(/C(=C/C=C(C#N)C#N)Sc2ccc(Cl)cc2)cc1 | 5.98 | – | – | 17.4 | 10.7 | 23.1 | – | 29.7 | 49.4 | 2570 | – | – | 2410 | 3530 | 5300 | – | – | – | 9240 | 22300
COC(=O)C(=O)C(C(=O)C(=O)Nc1ccccc1C(N)=O)c1nc2ccc(Cl)cc2[nH]c1=O (stereo not given) | > 100 | > 100 | – | > 100 | > 100 | > 100 | > 100 | > 100 | – | – | – | – | – | – | – | – | > 100 | – | – | –
Cc1ccccc1N(CCC#N)C1=NN(C(=O)CC(=O)Nc2ccccc2)C(c2ccccc2)C1 (stereo not given) | – | > 100 | > 100 | > 100 | > 100 | > 100 | > 100 | > 100 | > 100 | – | – | – | – | – | – | – | 96.7 | – | – | –
CCC[CH2][Sn]1([CH2]CCC)[O]C(=O)C(C(C)C)N=Cc2ccccc2[O]1 (stereo not given) | 0.401 | 2.21 | > 100 | – | 0.318 | 0.693 | – | 2.57 | 1.67 | 163 | 907 | 2210 | – | 158 | 244 | 235 | 0.776 | – | 1280 | 402
O=c1cccccc1NCCCNc1cccccc1=O | > 100 | > 100 | > 100 | > 100 | > 100 | > 100 | > 100 | > 100 | > 100 | – | – | – | – | – | – | – | – | – | – | –
COc1ccc2c(c1)C(=O)c1c-2n(CCCn2ccnc2)c(=O)c2ccccc12 | 0.835 | – | 2.55 | 24.8 | 7.59 | 1.86 | 5.58 | 1.46 | 11.9 | 179 | – | 204 | 213 | 247 | 403 | 843 | > 22.4 | 1120 | 128 | 1510
CC12CCCC(O)C1CCC1=CC3(CCC12)SCCS3 (stereo not given) | > 10 | > 10 | > 10 | > 10 | > 10 | > 10 | – | – | – | – | – | – | – | – | – | – | > 10 | – | – | –
CC(O)C(NC(=O)C(Cc1ccccc1)NC(=O)C(NC(=O)C(CCCCN)NC(=O)C(Cc1c[nH]c2ccccc12)NC(=O)C(Cc1ccc(O)cc1)NC(=O)C(Cc1ccc(Cl)cc1)NC(=O)C(N)Cc1ccccc1)C(C)O)C(N)=O (stereo not given) (H-F[Phe(4-Cl)]YWKTFT-NH2; configuration not given here) | – | 62.8 | 44.8 | 29.3 | – | 39.8 | – | 32.5 | 32.2 | – | – | – | – | – | – | – | 37.4 | – | – | –
O=C1NC(=O)c2ccc([N+](=O)[O-])c3cccc1c23 | – | 39.3 | 31 | – | 25.7 | 27 | 43.6 | 29.7 | 62.4 | – | – | – | – | – | – | – | 85.9 | – | – | –
NC(N)=NCCCn1c2c(c3ccccc3c1=O)C(=O)c1ccccc1-2 | 28.8 | > 100 | 22.6 | > 100 | 31 | 25.7 | – | > 100 | 58.5 | 14400 | 32600 | 10600 | 19900 | 14500 | 10900 | 5690 | 26.4 | – | 15300 | 16600
CC/C=C\C[C@@H]1C/C=C2/C(=O)C=C[C@H]2C/C=C\CCCC(=O)O1 | 0.323 | 0.677 | 3.93 | 1.58 | 2.02 | 2.66 | – | 7.45 | 2.44 | 145 | 267 | 910 | 240 | 483 | 735 | 1180 | 2.6 | – | 2670 | 1100
